“And” between values parts separate entries of the source, which are not always exact repeats. Equal entries are not always repeated.
How the values were obtained:
Format in all cases: cell-based, Pseudomonas aeruginosa
P. aeruginosa PAO1 [1] = experiment: Effect of GM-CSF on planktonic PAO1 cells (total viable cells and persisters) at exponential phase, alone and with antibiotic, CFU by drop plate; conditions: for % change in avg. CFU/ml after adding factor + CIP / % change in avg. CFU/ml after adding factor + GEN / % change in avg. CFU/ml after adding factor + TET / % change in avg. CFU/ml after adding factor + TOB / average CFU/mL of persisters reduced by / average CFU/mL of total viable cells reduced by: planktonic PAO1; for % change in avg. CFU/ml after adding factor + CIP: 2.43 pg/mL GM-CSF with 200 μg/mL ciprofloxacin; for % change in avg. CFU/ml after adding factor + GEN: 2.43 pg/mL GM-CSF with 200 μg/mL gentamicin; for % change in avg. CFU/ml after adding factor + TET: 2.43 pg/mL GM-CSF with 200 μg/mL tetracycline; for % change in avg. CFU/ml after adding factor + TOB: 2.43 pg/mL GM-CSF with 200 μg/mL tobramycin; for average CFU/mL of persisters reduced by / average CFU/mL of total viable cells reduced by: reduction
Experimental: This Example describes the treatment of planktonic P. aeruginosa PAO1, PDO300 and Escherichia coli K12, with GM-CSF introduced directly or together with an antibiotic to test the synergy. All experiments were conducted with cells harvested from exponential phase subcultures with an optical density at 600 nm (OD600) of 0.3 to 0.4.
In brief, after preparing an overnight culture of the tested strain in 25 ml LB medium, a subculture was prepared with an OD600 of 0.01 in 50 mL LB medium. The subculture was incubated at 37° C. with shaking at 200 rpm for 3-4 h, till an OD600 of 0.3 to 0.4 was reached. The exponential phase subculture was then divided equally into two centrifuge tubes, each containing 25 mL of the subculture. The subcultures were washed twice with 0.85% NaCl buffer by vortexing and then centrifuging at 4° C., 8000 rpm for 10 min each time. The washed subcultures/cells were resuspended in 25 mL 0.85% NaCl buffer and vortexed gently for 1 min. One of the tubes of subculture was selected for isolation of persisters by adding 200 μg/mL ciprofloxacin (for PAO1 and PDO300 strains) or 100 μg/mL ampicillin (for E. coli K12 strain). After adding the antibiotic for persister isolation, the subculture was incubated at 37° C., shaking at 200 rpm for 3.5 h.
To test the effects of GM-CSF on viability of persisters, the second tube was used to quantify the total number of viable cells and 1 mL of the washed persister cells was divided into 6 microcentrifuge tubes; 3 were control and the other 3 were GM-CSF treatment samples. In the treatment samples, GM-CSF was added to a concentration of 2.43 pg/mL (or 0.17 pM), the same as found in healthy human bodies. The control samples were supplemented with the same concentration of PBS and BSA as present in 2.43 pg/mL (or 0.17 pM) GM-CSF samples.
After incubating at 37° C. for 1 h with shaking at 200 rpm, the samples were plated on LB agar plates (15 g/L bacto agar) using drop plate method. The agar plates were then incubated for 24 h at 37° C. to count the total number of persister cells and understand the effect of 0.17 pM GM-CSF on the viability of persister cells.
To test the synergy with antibiotics, the above samples were then incubated at 37° C. for 3.5 h with shaking at 200 rpm after adding the selected antibiotic. After 3.5 h, the CFU of samples was quantified in the same way to understand if there is any synergy between GM-CSF and antibiotic. Similar treatments were performed on the total population in exponential phase as well. Apart from exponential phase, the synergistic effects of GM-CSF with antibiotics on total viable cells and persisters were also evaluated at stationary phase but PBS buffer (pH=7.4) was used in the experiments instead of 0.85% NaCl solution. Moreover, the 1 h and 3.5 h treatments were performed as co-treatments.

P. aeruginosa PAO1 [2] = experiment: Effect of GM-CSF on planktonic PAO1 total population and persister cells at stationary phase, co-treatment with antibiotic
biofilm cells of PDO300 = experiment: Synergistic effects of GM-CSF, tobramycin and alginate lyase on biofilm cells of PDO300; conditions: 2.43 pg/mL GM-CSF with 200 μg/mL tobramycin, 3.5 h
Experimental: This Example describes an experiment, similar to the one described in Example 5 with respect to the planktonic cells of PDO300, which was performed on the biofilm cells of PDO300.
In brief, after preparing an overnight culture, it was subcultured to an OD600 of 0.01 in a total volume of 20 mL M63 medium with 316L stainless steel coupons (1.75 cm×1 cm). The biofilm was grown for 24 h at 37° C. After incubation, the coupons were washed by gently dipping in 0.85% NaCl buffer twice using tweezers and then placed in new empty petri dishes.
To test the synergistic effects of GM-CSF (2.43 pg/mL), tobramycin (200 μg/mL) and alginate lyase (0.5 mg/mL), a total of 8 coupons were included. These 8 coupons were placed in 8 microcentrifuge tubes with 2 mL of 0.85% NaCl buffer. There were 4 treatments samples, with 2 coupons for each treatment (i) Control (ii) […] Tobramycin (iii) 200 μg/mL Tobramycin and 2.43 pg/mL GM-CSF and (iv) 200 μg/mL Tobramycin, 2.43 pg/mL GM-CSF and 0.5 mg/mL Alginate lyase. […]
After incubation, each coupon was gently washed with 0.85% NaCl buffer and placed in a test tube with 2 mL of 0.85% NaCl buffer. […] The CFU was counted after incubation at 37° C. for 24 h to quantify the total number of viable cells. The synergistic effects of GM-CSF, tobramycin and alginate lyase were quantified based on CFU data.

[3] = 2.43 pg/ml GM-CSF with 200 μg/mL ciprofloxacin
[4] = 2.43 pg/ml GM-CSF with 200 μg/mL gentamicin
[5] = 2.43 pg/ml GM-CSF with 200 μg/mL tetracycline
[6] = 2.43 pg/ml GM-CSF with 200 μg/mL tobramycin

GM-CSF: granulocyte macrophage-colony stimulating factor, a cytokine secreted by macrophages; recombinant human GM-CSF (R&D systems) in binding tests
persister cells rendered sensitive to the antibiotic ciprofloxacin (P. aeruginosa PAO1 [1]; P. aeruginosa persister cells, GM-CSF at 2.43 pg/mL): more than 97%
% change in avg. CFU/ml after adding factor + CIP (P. aeruginosa PAO1 [1]; persisters): −97.95%
% change in avg. CFU/ml after adding factor + GEN (P. aeruginosa PAO1 [1]; persisters): −59.31%
% change in avg. CFU/ml after adding factor + TET (P. aeruginosa PAO1 [1]; persisters): −65.66%
% change in avg. CFU/ml after adding factor + TOB (P. aeruginosa PAO1 [1]; persisters): −81.42%
average CFU/mL of persisters reduced by (P. aeruginosa PAO1 [1]; [3]): 97.95%
average CFU/mL of total viable cells reduced by (P. aeruginosa PAO1 [1]; [3]): 15.38%
average CFU/mL of persisters reduced by (P. aeruginosa PAO1 [1]; [4]): 59.31%
average CFU/mL of total viable cells reduced by (P. aeruginosa PAO1 [1]; [4]): 10.53%
average CFU/mL of persisters reduced by (P. aeruginosa PAO1 [1]; [5]): 65.66%
average CFU/mL of total viable cells reduced by (P. aeruginosa PAO1 [1]; [5]): 23.06%
average CFU/mL of persisters reduced by (P. aeruginosa PAO1 [1]; [6]): 81.42%
average CFU/mL of total viable cells reduced by (P. aeruginosa PAO1 [1]; [6]): 34.62%
% change in avg. CFU/ml after adding factor (P. aeruginosa PAO1 [1]; total viable cells, planktonic PAO1, exponential phase, 2.43 pg/mL GM-CSF alone, 1 h): −2.22% and −5.00% and −2.94% and −1.69%
% change in avg. CFU/ml after adding factor + CIP (P. aeruginosa PAO1 [1]; total viable cells): −15.38%
% change in avg. CFU/ml after adding factor + GEN (P. aeruginosa PAO1 [1]; total viable cells): −10.53%
% change in avg. CFU/ml after adding factor + TET (P. aeruginosa PAO1 [1]; total viable cells): −23.08%
% change in avg. CFU/ml after adding factor + TOB (P. aeruginosa PAO1 [1]; total viable cells): −34.62%
% change in avg. CFU/mL by GM-CSF (compared to GM-CSF free control) (P. aeruginosa PAO1 [2]; persisters, 1.7 pM GM-CSF, 200 μg/mL ciprofloxacin): −53.8 ± 16.1%
% change in avg. CFU/mL by GM-CSF (compared to GM-CSF free control) (P. aeruginosa PAO1 [2]; persisters, 1.7 pM GM-CSF, 200 μg/mL gentamicin): −12.7 ± 8.8%
% change in avg. CFU/mL by GM-CSF (compared to GM-CSF free control) (P. aeruginosa PAO1 [2]; persisters, 1.7 pM GM-CSF, 200 μg/mL tobramycin): −82.7 ± 2.3%
% change in avg. CFU/mL by GM-CSF (compared to GM-CSF free control) (P. aeruginosa PAO1 [2]; persisters, 17 pM GM-CSF, 200 μg/mL ciprofloxacin): −74.0 ± 2.9%
% change in avg. CFU/mL by GM-CSF (compared to GM-CSF free control) (P. aeruginosa PAO1 [2]; persisters, 17 pM GM-CSF, 200 μg/mL gentamicin): −25.4 ± 10.6%
% change in avg. CFU/mL by GM-CSF (compared to GM-CSF free control) (P. aeruginosa PAO1 [2]; persisters, 17 pM GM-CSF, 200 μg/mL tetracycline): −91.2 ± 3.2%
% change in avg. CFU/mL by GM-CSF (compared to GM-CSF free control) (P. aeruginosa PAO1 [2]; persisters, 17 pM GM-CSF, 200 μg/mL tobramycin): −86.5 ± 1.7%
% change in avg. CFU/mL by GM-CSF (compared to GM-CSF free control) (P. aeruginosa PAO1 [2]; total viable cells, 1.7 pM GM-CSF, 200 μg/mL ciprofloxacin): −19.5 ± 15.6%
% change in avg. CFU/mL by GM-CSF (compared to GM-CSF free control) (P. aeruginosa PAO1 [2]; total viable cells, 1.7 pM GM-CSF, 200 μg/mL gentamicin): −13.1 ± 7.4%
% change in avg. CFU/mL by GM-CSF (compared to GM-CSF free control) (P. aeruginosa PAO1 [2]; total viable cells, 1.7 pM GM-CSF, 200 μg/mL tobramycin): −9.4 ± 20.0%
% change in avg. CFU/mL by GM-CSF (compared to GM-CSF free control) (P. aeruginosa PAO1 [2]; total viable cells, 17 pM GM-CSF, 200 μg/mL ciprofloxacin): −10.3 ± 21.5%
% change in avg. CFU/mL by GM-CSF (compared to GM-CSF free control) (P. aeruginosa PAO1 [2]; total viable cells, 17 pM GM-CSF, 200 μg/mL gentamicin): −15.9 ± 7.4%
% change in avg. CFU/mL by GM-CSF (compared to GM-CSF free control) (P. aeruginosa PAO1 [2]; total viable cells, 17 pM GM-CSF, 200 μg/mL tetracycline): −1.0 ± 12.4%
% change in avg. CFU/mL by GM-CSF (compared to GM-CSF free control) (P. aeruginosa PAO1 [2]; total viable cells, 17 pM GM-CSF, 200 μg/mL tobramycin): +3.1 ± 18.6%
additional killing of biofilm cells compared to the 200 μg/mL tobramycin treatment alone (biofilm cells of PDO300): −24.7±5.3%

From patent US9370189B2, “Controlling Pseudomonas aeruginosa persister cells with GM-CSF” (priority 2012, dated 2016)
